Test results published in patent US5089516A, “1-phenyl-3,5-pyrazolidinedione hydroxystyrene compounds which have tyrosine kinase inhibiting activity” (Kanegafuchi Kagaku Kogyo Kabushiki Kaisha, priority 1987, dated 1992).

What was measured:
5-lipoxygenase = molecular target: T1, 5-lipoxygenase (Cavia porcellus, UniProt A0A286X958); test: 5-Lipoxygenase inhibiting activity (5-HETE formation, cytosol of peritoneal exudate cells); type: biochemical, Hartley guinea pigs; conditions: 10 μM in the reaction mixture; read-out: Inhibition rate (5-lipoxygenase)
T1 construct: The cytosol fraction was used as an enzyme solution; from tissue; host or cells: peritoneal exudate cells of casein-injected Hartley guinea pigs, 105,000×g cytosol
T1 sequence (A0A286X958 1-674): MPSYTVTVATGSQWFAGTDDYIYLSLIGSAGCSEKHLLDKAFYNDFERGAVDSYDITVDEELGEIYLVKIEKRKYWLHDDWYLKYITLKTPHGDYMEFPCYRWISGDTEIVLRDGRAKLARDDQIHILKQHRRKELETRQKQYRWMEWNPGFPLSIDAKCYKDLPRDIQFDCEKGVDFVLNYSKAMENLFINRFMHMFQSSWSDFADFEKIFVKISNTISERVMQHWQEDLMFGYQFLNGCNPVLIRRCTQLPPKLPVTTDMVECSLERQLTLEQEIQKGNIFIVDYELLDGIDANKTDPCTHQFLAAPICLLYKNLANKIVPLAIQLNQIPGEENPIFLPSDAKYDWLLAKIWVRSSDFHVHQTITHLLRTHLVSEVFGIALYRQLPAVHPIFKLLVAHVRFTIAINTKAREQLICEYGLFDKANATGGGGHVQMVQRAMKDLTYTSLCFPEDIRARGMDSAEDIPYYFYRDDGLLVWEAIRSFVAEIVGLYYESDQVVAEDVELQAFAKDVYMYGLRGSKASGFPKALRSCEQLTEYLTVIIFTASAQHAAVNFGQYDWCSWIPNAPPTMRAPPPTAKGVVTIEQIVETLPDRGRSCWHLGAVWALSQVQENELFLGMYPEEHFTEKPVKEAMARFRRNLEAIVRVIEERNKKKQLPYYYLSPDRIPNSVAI
Experimental: 5-Lipoxygenase inhibiting activity of the compound of the present invention was measured referring to the method for measuring 5-lipoxygenase activity by K. Ochi et al. [Journal of Biological Chemistry (J. Biol. Chem.), 258, 5754(1983)].
Sterilized 2% solution of casein (pH 7) was injected intraperitoneally into Hartley guinea pigs in a volume of 5 ml/100 g body weight. Fifteen hours later, the guinea pigs were killed and peritoneal exudate cells thereof were collected. After the exudate cells were washed with 17 mM Tris--HCl buffer (pH 7.4) containing 0.74% ammonium to remove contaminating erythrocytes in the exudate cells suspension, the cells were washed with buffer A (130 mM NaCl, 1 mM EDTA, 25 mM sodium phosphate, pH 7.4). The washed cells were suspended in buffer B (50 mM sodium phosphate, 1 mM EDTA, 0.1% gelatin, pH 7.4) at 10^8 cells/ml, sonicated and centrifuged at 10,000×g for 20 minutes under the cold atmosphere. The obtained supernatant was further centrifuged at 105,000×g for 60 minutes under the cold atmosphere. The cytosol fraction was used as an enzyme solution.
The enzyme solution was preincubated with the […] in the presence of 1 mM CaCl2, 1 mM reduced gluthathione (GSH) and 2 mM ATP at 30° C. for 5 minutes in 0.2 ml of a reaction mixture and the mixture was further incubated at 30° C. for 5 minutes by adding 20 μM [1-^14 C] arachidonic acid (0.1 μCi) thereto. The test compounds were dissolved in ethanol to give the reaction mixture containing 2% ethanol as a final concentration. Only ethanol was added to the reaction mixture as a control group.
To the reaction mixture were added 2.5 ml of a mixture of chloroform and methanol (2/1 by volume) and 0.3 ml of 40 mM citric acid to stop the reaction. The mixture was vortexed and an organic solvent layer was evaporated to dryness under nitrogen gas. After dissolving the dried organic layer in a fixed amount of the mixture of chloroform and methanol (2/1 by volume), it was spotted on a silica gel plate (Kiesel gel 60F254, E. Merck) and products were separated using a developer (the organic solvent layer of ethyl acetate/water/2,2,4-trimethylpentane/acetic acid=11/10/5/2 by volume). After the radioactive position of the product was determined by means of a radioautography, an area equivalent to that of 5-hydroxyeicosatetraenoic acid (hereinafter referred to as "5-HETE") was scraped off, and then its radioactivity was measured with a liquid scintillation counter. With regarding the amount of the generated 5-HETE as the 5-lipoxygenase inhibiting activity, the inhibition rate (%) in comparison with the control group was calculated according to the following equation. [formula]

[1] = molecular target: T2, epidermal growth factor receptor-tyrosine kinase complex (Homo sapiens, UniProt P00533); test: Tyrosine kinase inhibiting activity (A-431 membrane preparation, EGF-stimulated); type: biochemical; conditions: read-out: Tyrosine kinase inhibition rate; for inhibition at 10 µM: 10 μM in the reaction mixture; for inhibition at 1 µM: 1 μM in the reaction mixture
T2 construct: The membrane preparation was employed in the following measurement without solubilization; endogenous in cells; host or cells: A-431 (ATCC CRL1555), membrane preparation, not solubilized
T2 sequence (P00533 25-1210, one chain of several): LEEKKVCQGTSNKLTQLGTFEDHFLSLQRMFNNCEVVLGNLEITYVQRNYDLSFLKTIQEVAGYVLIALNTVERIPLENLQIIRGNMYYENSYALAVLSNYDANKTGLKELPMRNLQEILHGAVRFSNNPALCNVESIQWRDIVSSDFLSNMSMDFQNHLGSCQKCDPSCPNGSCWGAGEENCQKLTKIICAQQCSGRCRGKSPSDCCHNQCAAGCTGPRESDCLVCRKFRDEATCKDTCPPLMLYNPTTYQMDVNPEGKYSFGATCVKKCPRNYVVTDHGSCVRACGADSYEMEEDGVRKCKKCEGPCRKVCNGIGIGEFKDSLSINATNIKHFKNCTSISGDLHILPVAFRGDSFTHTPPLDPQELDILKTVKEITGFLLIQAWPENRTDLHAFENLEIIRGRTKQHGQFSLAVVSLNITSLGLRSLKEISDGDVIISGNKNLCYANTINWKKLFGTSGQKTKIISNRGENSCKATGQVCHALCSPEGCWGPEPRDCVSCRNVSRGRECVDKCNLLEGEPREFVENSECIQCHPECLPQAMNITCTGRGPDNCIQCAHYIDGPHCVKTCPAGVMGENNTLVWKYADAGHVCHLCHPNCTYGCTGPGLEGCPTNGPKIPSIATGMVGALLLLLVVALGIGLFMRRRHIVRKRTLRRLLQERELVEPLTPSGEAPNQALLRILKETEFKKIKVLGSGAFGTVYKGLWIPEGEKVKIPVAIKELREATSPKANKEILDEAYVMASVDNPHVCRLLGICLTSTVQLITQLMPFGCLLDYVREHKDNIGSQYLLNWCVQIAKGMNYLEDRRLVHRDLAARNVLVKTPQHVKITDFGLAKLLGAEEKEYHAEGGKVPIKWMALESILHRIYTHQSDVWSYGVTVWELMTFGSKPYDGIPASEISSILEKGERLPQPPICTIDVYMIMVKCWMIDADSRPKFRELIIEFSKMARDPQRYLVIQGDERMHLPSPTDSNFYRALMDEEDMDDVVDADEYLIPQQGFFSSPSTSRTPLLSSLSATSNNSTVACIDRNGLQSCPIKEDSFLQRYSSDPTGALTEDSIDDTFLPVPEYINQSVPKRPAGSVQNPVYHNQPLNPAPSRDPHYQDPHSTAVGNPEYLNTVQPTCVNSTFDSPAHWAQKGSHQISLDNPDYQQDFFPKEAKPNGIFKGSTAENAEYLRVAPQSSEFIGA
Experimental: Tyrosine kinase inhibiting activity of the compound of the present invention was measured referring to a method for measuring tyrosine kinase activity by G. Carpenter or by S. Cohen et al. [J. Biol. Chem., 254, 4884(1979); J. Biol. Chem., 257, 1528(1982)].
Cell line A-431 derived from human carcinoma (ATCC CRL1555) was cultured at 37° C. under the condition of 5% CO2 in Dulbecco's modified Eagle's medium (made by NISSUE PHARMACEUTICAL CO., LTD.) containing 10% by volume fetal bovine serum, 50 μg/ml of streptomycin, 50 IU/ml of penicillin G and 50 μg/ml of kanamycin. […] The membrane preparation was employed in the following measurement without solubilization.
A test compound dissolved in dimethylsulfoxide (hereinafter referred to as "DMSO") was added to a mixture of 20 mM of N-2-hydroxyethylpiperazine-N'-2-ethanesulfonic acid buffer (pH 7.4), 1 mM of MnCl2, 7.5 μg of bovine serium albumin and the membrane preparation (10 μg as protein). After incubation at 0° C. for 5 minutes, 100 ng of epidermal growth factor (hereinafter referred to as "EGF") was added thereto and the mixture was further incubated at 0° C. for 15 minutes. [γ-^32 P]ATP (3000 Ci/mmol, 0.1 μCi) was added thereto to make final volume of 70 μl. After incubation at 0° C. for 15 minutes, 50 μl of the reaction mixture was soaked into Whatman 3 MM filter paper (made by Whatman Ltd.) and immediately the reaction was stopped by an aqueous solution of 10% by weight trichloroacetic acid containing 10 mM sodium pyrophosphate. The filter paper was sufficiently washed with the same solution and then washed with ethanol, and dried. Radioactivity present in the filter paper was measured by liquid scintillation counter (A). Also, radioactivity was measured in case of the reaction without EGF (B), the reaction without the test compound (C), and the reaction without both EGF and the test compound (D) as a control.
Tyrosine kinase inhibition rate (%) was calculated by the following equation. [formula]

[2] = test system: passive cutaneous anaphylaxis (PCA) reaction; test: Inhibitory activity against homologous PCA reaction in rats; type: in vivo, male Wistar rats; conditions: Rattus norvegicus, oral, read-out: Inhibition rate (PCA reaction); for inhibition in vivo at 100 mg/kg: 1 hour before antigen
Experimental: (1) Inhibitory activity against homologous PCA reaction in rats
Antiserum was prepared according to I. Mota [Immunology, 7, 681(1964)]and the PCA reaction was conducted according to Maruyama et al. [Folia Pharmacologica Japonica, 74, 179(1978}].
An ovalbumin solution dissolved in physiological saline (2 mg/ml) was injected intramuscularly into both thighs of male Wistar rats weighing 200 to 260 g in a volume of 0.5 ml/100 g body weight, and pertussis vaccine (Bordetella pertussis, 2×10^10 /ml/ Chiba Serum Institute) was intraperitoneally administered at 1 ml/rat. Twelve days after sensitization, blood was taken from posterior aorta under ether anesthesia and serum was separated and stored at -80° C.
In each group, 4 male Wistar rats weighing 180 to 210 g were used. Back of the rats was shaved and reach 0.05 ml of antiserum diluted 32 times with physiological saline was injected intradermally at four sites on the back. After 48 hours, 1 ml of a mixture of ovalbumin (2 mg/ml) as an antigen and Evans blue (10 mg/ml) in the volume ratio of 1 : 1, which was dissolved in physiological saline was injected intravenously into the tail. Thirty minutes later, the rats were bled to death under ether anesthesia and the back skin of the rats was removed. The blue-dyed area formed by pigment exudation was measured and an inhibition rate (%) was calculated as compared with control according to the following equation. [formula]
A test compound suspended in a 2.5 % aqueous solution of gum arabic containing 0.2 % Tween 80 was administered orally in a volume of 0.5 m:/100 g body weight 1 hour before the injection of antigen. To the control group, only the vehicle was administered. Tranilast which was a positive control compound was administered orally 30 minutes before the injection of antigen.

[3] = test system: antigen-induced airway constriction; test: Inhibitory activity against antigen-induced airway constriction in actively sensitized guinea pigs; type: in vivo; conditions: Cavia porcellus, iv, 3 minutes before antigen inhalation, read-out: Inhibition rate (airway constriction)
Experimental: (3) Inhibitory activity against antigen-induced airway constriction in actively sensitized guinea pigs
That is, the sensitized guinea pigs (5 guinea pigs/group) were provided with artificial respiration by inserting a tracheal cannula under urethane anesthesia (1.5 g/kg body weight, intraperitoneal administration), and then, gallamine at 1 mg/kg body weight was injected intravenously to stop spontaneous respiration of the guinea pigs. Inhalation of 0.5% aqueous solution of ovalbumin was conducted using a nebulizer for 1 minute to increase antigen-induced airway constriction, at the same time, airway pressure was recorded through a transducer. Test compound was administered into jugular vein (i.v.) of the guinea pig 3 minutes before the antigen inhalation or administered orally (p.o.) 2 hours before the antigen inhalation. As a positive control compound, theophylline which was a drug for anti-asthma was used. The effect of the compound was estimated by calculating the maximum value of airway constriction (%) in comparison with the control group, according to the following equation. [formula]

[4] = test system: Nycobacterium smegmatis ATCC 607; test: Antibacterial activity (MIC) against acid-fast bacteria; type: cell-based; conditions: 37° C., 40 to 42 hours
Experimental: As for acid-fast bacteria, after cultured in glycerol broth medium, there was prepared a bacterial suspension for inoculation containing about 10^6 of the bacteria per 1 ml of the medium. On the other hand, there were prepared some glycerol Czapek agar plating media with adding the test compounds, and thereto the bacterial suspension for inoculation was streaked.

[5] = test system: antigen-induced anaphylactic shock death; test: Protecting effect against antigen-induced anaphylactic shock death in actively sensitized guinea pigs; type: in vivo, male guinea pigs; conditions: Cavia porcellus, 1.5 h, oral, 30 minutes before antigen inhalation
Experimental: (2) Protecting effect against antigen-induced anaphylactic shock death in actively sensitized guinea pigs
Anaphylactic shock death caused by inhalation of antigen was observed according to John P. Devlin Pulmonary and Antiallergic Drugs, John Wiley & Sons, (1985)] employing actively sensitized guinea pigs.
Each 100 mg/kg of body weight ovalbumin dissolved in physiological saline was injected into gluteus and into peritoneal cavity of male guinea pigs weighing 250 to 350 g. Three days later, the animals were further injected intraperitoneally with ovalbumin (100 mg/kg body weight) to conduct booster. Those animals were employed for testing 3 to 4 weeks after the sensitization.
In each group, 4 or more actively sensitized guinea pigs were pretreated by subcutaneously injecting pyrilamine (1 mg/kg body weight) 30 minutes before antigen inhalation to suppress histamine-dependent response and propranolol (1 mg/kg body weight) to enhance the response induced by other than histamine 10 minutes before the antigen inhalation.
The animal was placed in a desiccator with a capacity of about […] and 0.5% aqueous solution of ovalbumin in the state of aerosol was inhaled with ultrasonic type nebulizer for five minutes. Anaphylactic shock death was observed and the animals survived for 90 minutes or more after antigen inhalation were estimated to be protected. All the animals of the control group died due to anaphylactic shock. The compounds of the present invention and therapeutic antiasthmatic agent (tranilast, theophylline) were administered orally 30 minutes before the antigen inhalation.

Row | Structure (SMILES) | inhibition at 10 µM (5-lipoxygenase) [%] | inhibition at 10 µM [1] [%] | inhibition in vivo at 100 mg/kg [2] [%] | responders at 100 mg/kg [5] [%] | other results
1 | N#CC(=Cc1cc(O)c(O)c(Cc2ccccc2)c1)C(N)=O [Compound 23] | 85 | 60 | 29 | – | –
2 | CC(C)c1cc(C=C2SC(Nc3ccccc3)=NC2=O)cc(C(C)C)c1O [Compound 32] | – | – | 21 | – | inhibition in vivo at 2 mg/kg ([3]; 2 mg/kg): 23%; MIC [4]: ≤ 6 µg/mL; inhibition at 1 µM [1]: 74%
3 | CC(C)c1cc(C=C2SC(NCCc3ccccc3)=NC2=O)cc(C(C)C)c1O [Compound 34] | – | – | 48 | – | MIC [4]: ≤ 6 µg/mL; inhibition at 1 µM [1]: 63%
4 | CC(C)c1cc(C=C2SC(NCc3ccc(Cl)cc3)=NC2=O)cc(C(C)C)c1O [Compound 36] | 84 | 59 | – | 25 | –
5 | COc1ccc(CNC2=NC(=O)C(=Cc3cc(C(C)C)c(O)c(C(C)C)c3)S2)cc1 [Compound 38] | 88 | 85 | – | 25 | –
6 | Cn1c(=O)c2[nH]cnc2n(C)c1=O [theophylline, reference compound] | – | – | – | – | inhibition in vivo at 1 mg/kg ([3]; 1 mg/kg): 31%; responders at 30 mg/kg ([5]; 30 mg/kg): 50%
7 | COc1ccc(/C=C/C(=O)Nc2ccccc2C(=O)O)cc1OC [tranilast, reference compound] | – | – | – | 0 | inhibition in vivo at 300 mg/kg ([2]; 300 mg/kg, 30 minutes before antigen, positive control): 40%
